Reference: PubChem BioAssay AID1199 (EPA DSSTox, 2008)
Activity calls are given as the source filed them.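 The calls were made as follows: active = a tumour-causing dose and a tumour site recorded for mice in at least one sex group; inconclusive = only government mouse studies exist and were judged inadequate; inactive = mouse studies exist but none gave tumours.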

tested on: mouse carcinogenicity bioassay, TD50 from CPDB; assay: DSSTox (CPDBAS) Carcinogenic Potency Database Summary Mouse Bioassay Results; details: not given
Method in brief: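 Values are TD50 carcinogenic potencies from mouse chronic bioassays, taking the most positive result for each sex-species. Sources are published literature and NCI/NTP studies; target sites reflect author-reported positive findings.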

Row | SMILES | Potency [mmol/kg/day]
1 | O=NN1CCCC1 | 0.00678
2 | CN(N=O)C(N)=O | 0.0119

same assay, conditions: TD50_Mouse_Note: TD50_Mouse_mmol was not calculated for this mixture, but Activiity Score is assigned value of 50 to indicate active

Row | SMILES | outcome
3 | Clc1cccc(-c2ccc(Cl)c(Cl)c2Cl)c1Cl | active; liver

same assay, conditions: TD50_Mouse_Note: TD50 is harmonic mean of more than one positive test; TargetSites_Mouse_Female: esophagus; stomach

Row | SMILES | Potency [mmol/kg/day]
4 | O=[N+]([O-])c1ccc(-c2cnc3ccccn23)o1 | 0.118

same assay, conditions: TD50_Mouse_Note: TD50 is harmonic mean of more than one positive test; TargetSites_Mouse_Female: liver

Row | SMILES | Potency [mmol/kg/day]
5 | CCC1(c2ccccc2)C(=O)NCNC1=O | 0.12
6 | CCc1ccccc1 | 15.1
7 | ClC1C(Cl)C(Cl)C(Cl)C(Cl)C1Cl (stereo not given) | 0.0956
8 | CN(C)c1ccc(C(=O)c2ccc(N(C)C)cc2)cc1 | 0.313
9 | COC(=O)C(c1ccccc1)C1CCCCN1 (stereo not given) | 0.371
10 | COc1ccccc1[N+](=O)[O-] | 1.16
11 | O=[N+]([O-])c1ccc(Oc2ccc(Cl)cc2Cl)cc1 | 0.405
12 | ClC=C(Cl)Cl | 2.61
13 | Brc1cc(Br)c(-c2c(Br)c(Br)c(Br)c(Br)c2Br)c(Br)c1Br | 0.00418

same assay, conditions: TD50_Mouse_Note: TD50 is harmonic mean of more than one positive test; TargetSites_Mouse_Female: liver; lung

Row | SMILES | Potency [mmol/kg/day]
14 | ClC1C(Cl)C(Cl)C(Cl)C(Cl)C1Cl (stereo not given) | 0.106
15 | CCCC/C=N/N(C)C=O | 0.0241

same assay, conditions: TD50_Mouse_Note: TD50 is harmonic mean of more than one positive test; TargetSites_Mouse_Female: liver; lung; stomach

Row | SMILES | Potency [mmol/kg/day]
16 | Nc1c(Br)cc(Br)c2c1C(=O)c1ccccc1C2=O | 1.25

same assay, conditions: TD50_Mouse_Note: TD50 is harmonic mean of more than one positive test; TargetSites_Mouse_Female: liver; thyroid gland

Row | SMILES | Potency [mmol/kg/day]
17 | Clc1cc2c(cc1Cl)Oc1cc(Cl)c(Cl)cc1O2 | 4.85e-07

same assay, conditions: TD50_Mouse_Note: TD50 is harmonic mean of more than one positive test; TargetSites_Mouse_Female: liver; urinary bladder

Row | SMILES | Potency [mmol/kg/day]
18 | Nc1ccc(-c2ccccc2)cc1 | 0.0124

same assay, conditions: TD50_Mouse_Note: TD50 is harmonic mean of more than one positive test; TargetSites_Mouse_Female: liver; vascular system

Row | SMILES | Potency [mmol/kg/day]
19 | Cc1cccn2c1nc1ccc(N)nc12 | 0.0272
20 | Cc1ccc(Cl)cc1N | 1.38
21 | Cc1cc2c(nc1N)[nH]c1ccccc12 | 0.0863

same assay, conditions: TD50_Mouse_Note: TD50 is harmonic mean of more than one positive test; TargetSites_Mouse_Female: lung

Row | SMILES | Potency [mmol/kg/day]
22 | O=[O+][O-] | 0.0392
23 | NNC(=O)c1cccnc1 | 1.66

same assay, conditions: TD50_Mouse_Note: TD50 is harmonic mean of more than one positive test; TargetSites_Mouse_Female: lung; stomach

Row | SMILES | Potency [mmol/kg/day]
24 | CCCCN(N)CCCC | 0.313

same assay, conditions: TD50_Mouse_Note: TD50 is harmonic mean of more than one positive test; TargetSites_Mouse_Female: stomach

Row | SMILES | Potency [mmol/kg/day]
25 | O=Cc1ccccc1 | 14
26 | CC(C)=CCl | 0.165
27 | c1ccc(C2CO2)cc1 (stereo not given) | 0.982
28 | NC(=O)CCCCn1ccc(NC(N)=NCC(F)(F)F)n1 | 1.84
29 | c1cc(OCC2CO2)cc(OCC2CO2)c1 (stereo not given) | 0.109

same assay, conditions: TD50_Mouse_Note: TD50 is harmonic mean of more than one positive test; TargetSites_Mouse_Female: urinary bladder

Row | SMILES | Potency [mmol/kg/day]
30 | CCS(=O)(=O)c1ccc(S(N)(=O)=O)c2ccccc12 | 0.0705

same assay, conditions: TD50_Mouse_Note: TD50 is harmonic mean of more than one positive test; greater than ten-fold variation among TD50 values for positive res; TargetSites_Mouse_Female: liver

Row | SMILES | Potency [mmol/kg/day]
31 | CCOC(=O)C(O)(c1ccc(Cl)cc1)c1ccc(Cl)cc1 | 0.289

same assay, conditions: TD50_Mouse_Note: TD50 is harmonic mean of more than one positive test; greater than ten-fold variation among TD50 values for positive res; TargetSites_Mouse_Female: liver; lung

Row | SMILES | Potency [mmol/kg/day]
32 | ClC=C(Cl)Cl | 12

same assay, conditions: TD50_Mouse_Note: TD50 is harmonic mean of more than one positive test; greater than ten-fold variation among TD50 values for positive res; TargetSites_Mouse_Female: urinary bladder

Row | SMILES | Potency [mmol/kg/day]
33 | O=c1cc[nH]c(=O)[nH]1 | 24.5

same assay, conditions: TD50_Mouse_Note: TD50 is harmonic mean of more than one positive test; harmonic mean of TD50 includes a value for upper 99% confidence li; TargetSites_Mouse_Female: liver

Row | SMILES | Potency [mmol/kg/day]
34 | ClC1C(Cl)C(Cl)C(Cl)C(Cl)C1Cl (stereo not given) | 0.0509

same assay, conditions: TD50_Mouse_Note: TD50 is harmonic mean of more than one positive test; harmonic mean of TD50 includes a value for upper 99% confidence li; TargetSites_Mouse_Female: lung; vascular system

Row | SMILES | Potency [mmol/kg/day]
35 | CNNC | 0.000857

same assay, conditions: TD50_Mouse_Note: TD50 is harmonic mean of more than one positive test; no positive results are statistically significant; TargetSites_Mouse_Female: no positive results

Row | SMILES | Potency [mmol/kg/day]
36 | COc1ccc(O)c(C(C)(C)C)c1 | 30.7

same assay, conditions: TD50_Mouse_Note: TD50 value is overestimated as upper 99% confidence limit from study with 100% tumor incidence but no lifetable; harmoni

Row | SMILES | Potency [mmol/kg/day]
37 | Cc1cccc(Nc2cc(Cl)nc(SCC(=O)O)n2)c1C | 0.0334
38 | ClC1C(Cl)C(Cl)C(Cl)C(Cl)C1Cl (stereo not given) | 0.0228

same assay, conditions: TD50_Mouse_Note: no positive results

Row | SMILES | outcome
39 | [Se] | inactive
40 | CC12CCC(CC1)C(C)(C)O2 | inactive; no positive results
41 | O=C(O[C@@H]1Cc2c(O)cc(O)cc2O[C@@H]1c1cc(O)c(O)c(O)c1)c1cc(O)c(O)c(O)c1 | inactive; no positive results

same assay, conditions: TD50_Mouse_Note: no positive results; TargetSites_Mouse_Female: no positive results

Row | SMILES | outcome
42 | C[C@]12CC[C@H](OS(=O)(=O)O)CC1=CC[C@@H]1[C@@H]2CC[C@]2(C)C(=O)CC[C@@H]12 | inactive; no positive results
43 | CC(C)(c1ccc(O)cc1)c1ccc(O)cc1 | inactive; no positive results
44 | CC#N | inactive; no positive results
45 | CCCCCl | inactive; no positive results
46 | ClCc1ccccn1 | inactive; no positive results
47 | N[C@@H](CCC(=O)NNc1ccc(CO)cc1)C(=O)O | inactive; no positive results
48 | C=C(C)[C@H]1Cc2c(ccc3c2O[C@@H]2COc4cc(OC)c(OC)cc4[C@@H]2C3=O)O1 | inactive; no positive results
49 | OC[C@H]1O[C@@](CO)(O[C@H]2O[C@H](CO)[C@@H](O)[C@H](O)[C@H]2O)[C@@H](O)[C@@H]1O | inactive; no positive results
50 | CC(N)Cc1ccccc1 (stereo not given) | inactive; no positive results
51 | COP(=S)(OC)Oc1ccc(SC)c(C)c1 | inactive; no positive results
52 | CN(C)[C@@H]1C(=O)C(C(N)=O)=C(O)[C@@]2(O)C(=O)C3=C(O)c4c(O)cccc4[C@@](C)(O)[C@H]3C[C@@H]12 | inactive; no positive results
53 | C1C2OC2C2C1C1CC2C2OC12 (stereo not given) | inactive; no positive results
54 | COc1ccc([C@@H]2CC(=O)c3c(O)cc(O[C@@H]4O[C@H](CO[C@@H]5O[C@@H](C)[C@H](O)[C@@H](O)[C@H]5O)[C@@H](O)[C@H](O)[C@H]4O)cc3O2)cc1OC | inactive; no positive results
55 | Nc1cccc(N)c1 | inactive; no positive results
56 | CCCCN(CCCC)C(=S)[S-].CCCCN(CCCC)C(=S)[S-].[Ni+2] | inactive; no positive results
57 | CC(Cl)(Cl)Cl | inactive; no positive results
58 | Cc1cccc(C)c1 | inactive; no positive results
59 | CN(C)C=O | inactive; no positive results
60 | O=C(O)c1ccc(N=Nc2ccc(O)c(C(=O)O)c2)cc1 | inactive; no positive results
61 | CC(O)CCl (stereo not given) | inactive; no positive results
62 | CN[C@H]1CC[C@@H](c2ccc(Cl)c(Cl)c2)c2ccccc21 | inactive; no positive results
63 | CCOP(=S)(OCC)Oc1ccc([N+](=O)[O-])cc1 | inactive; no positive results
64 | O=C1CCCO1 | inactive; no positive results
65 | CCC[CH2][Sn]([CH2]CCC)([O]C(C)=O)[O]C(C)=O | inactive; no positive results
66 | c1ccc(-c2ccccc2)cc1 | inactive; no positive results
67 | O=S(=O)(Oc1ccc(Cl)cc1)c1ccc(Cl)cc1 | inactive; no positive results
68 | O=S1OCCO1 | inactive

Row | SMILES | outcome
69 | C=CCN=C=S | inactive; no positive results
70 | CC(O)CN(C)c1ccc(NN)nn1 (stereo not given) | inactive; no positive results
71 | C=C(C)C#N | inactive; no positive results
72 | CC(C)COC(=O)c1ccc(O)cc1 | inactive; no positive results
73 | O=C(NCC1CCCCN1)c1cc(OCC(F)(F)F)ccc1OCC(F)(F)F (stereo not given) | inactive; no positive results
74 | O=S1OCC2C(CO1)C1(Cl)C(Cl)=C(Cl)C2(Cl)C1(Cl)Cl (stereo not given) | inactive; no positive results
75 | O=S(=O)(Oc1ccc(Cl)cc1Cl)c1ccccc1 | inactive; no positive results
76 | IC(I)I | inactive; no positive results
77 | OCl | inactive; no positive results
78 | Nc1ccc(N)c(Cl)c1 | inactive; no positive results
79 | N#CC(c1ccccc1)c1ccccc1 | inactive; no positive results
80 | O=c1ccc(=O)[nH][nH]1 | inactive; no positive results
81 | CN=C(NC#N)NCCSCc1nc[nH]c1C | inactive
82 | CC(C)=CCC/C(C)=C/C=O | inactive; no positive results
83 | [Na+] | inactive; no positive results
84 | CC1=C(C(=O)OCCN(Cc2ccccc2)c2ccccc2)C(c2cccc([N+](=O)[O-])c2)C(P2(=O)OCC(C)(C)CO2)=C(C)N1 (stereo not given) | inactive; no positive results
85 | COc1cc(N)ccc1N=Nc1ccccc1 | inactive; no positive results
86 | Oc1ccc(-c2ccccc2)cc1 | inactive; no positive results
87 | Nc1cc(Cl)c(-c2cc(Cl)c(N)cc2Cl)cc1Cl | inactive
88 | CCN(Cc1cccc(S(=O)(=O)O)c1)c1ccc(C(=C2C=CC(=[N+](CC)Cc3cccc(S(=O)(=O)O)c3)C=C2)c2ccc(O)cc2S(=O)(=O)[O-])cc1 | inactive; no positive results
89 | Cc1cc(O)c(C(C)(C)C)cc1Sc1cc(C(C)(C)C)c(O)cc1C | inactive; no positive results
90 | Nc1c(Cl)c(Cl)nc(C(=O)O)c1Cl | inactive; no positive results
91 | S=C(S)NCCNC(=S)S | inactive; no positive results
92 | CN1C(=O)C[C@@H](C(=O)N[C@@H](Cc2cnc[nH]2)C(=O)N2CCC[C@H]2C(N)=O)NC1=O | inactive; no positive results
93 | Nc1ccc([N+](=O)[O-])cc1O | inactive; no positive results
94 | CC(C)C=O | inactive; no positive results

same assay, conditions: TargetSites_Mouse_BothSexes: no positive results

Row | SMILES | outcome
95 | CC(=O)C(N=Nc1ccc(Cl)cc1Cl)C(=O)Nc1ccc(-c2ccc(NC(=O)C(N=Nc3ccc(Cl)cc3Cl)C(C)=O)c(C)c2)cc1C (stereo not given) | inactive

same assay, conditions: TargetSites_Mouse_Female: liver

Row | SMILES | Potency [mmol/kg/day]
96 | Cc1ccc2c(c1N)C(=O)c1ccccc1C2=O | 0.733
97 | ClC(Br)Br | 0.667
98 | CCCc1c(OCCCCc2nn[nH]n2)ccc(C(C)=O)c1O | 0.352
99 | O=C/C=C/O | 0.15
100 | COc1ccc([N+](=O)[O-])cc1N | 22.1

same assay, conditions: TargetSites_Mouse_Female: no positive results

Row | SMILES | Potency [mmol/kg/day]
101 | O=C(O)[C@@H]1[C@H](C(=O)O)[C@@]2(Cl)C(Cl)=C(Cl)[C@]1(Cl)C2(Cl)Cl | 0.363
102 | Oc1ccc(Cl)cc1Cc1ccccc1 | 6.17
103 | OCc1ccco1 | 2.68
104 | Cc1cc(-c2ccc(N)c(C)c2)ccc1N | 0.1
105 | CCOc1ccc(NC(C)=O)cc1N | 10.7
